This is an account of results in US8993569B2, “Diarylpyridazinone derivatives, preparation thereof, and use thereof for the treatment of humans” (Pierre Fabre Medicament, priority 2010, dated 2015).

For the experiment, the target named is T1, human isoform of the Kv1.5 channels (HEK293 cells, stably transfected) (Homo sapiens, UniProt P22460).
T1 construct: expressed in transfected cells; host or cells: HEK293
The experiment is described as follows: FLIPR thallium ion flux assay on Kv1.5 potassium channel (FLIPR Potassium Ion Channel Assay Kit). The following applies: 10 μM compound, 15 min at 37° C; HEK293-hKv1.5; thallium fluorescence 30 secs after depolarising solution; normalised with 10 μM DPO. The experiment is classed as cell-based. As to the method: The pharmacological assessment of the compounds on the Kv1.5 potassium channel was performed in a 96-well plate in FLIPR technology by thallium ion measurement.
The HEK293 cells, stably transfected with the human isoform of the Kv1.5 channels, are seeded 24 h before experimentation in 96-well plates (15 10^6 cells/plate, 200 μl/well) polylysinated in the following culture medium: DMEM, 10% SVF, Penicillin/Streptomycin, G418 as the selection antibiotic.
The experimentation in FLIPR is performed using the “FLIPR Potassium Ion Channel Assay Kit) as indicated by the manufacturer (Molecular Devices).
Briefly, the culture medium is replaced by the solution containing the thallium marker for 90 min at 37° C. Following this step, the compounds to be tested are added to a final concentration of 10 μM in the well for 15 min at 37° C. The basic fluorescence is subsequently read for 60 secs. The addition of a depolarising medium (20 mM of potassium and 3 mM of final thallium), opens the potassium channels and induces an increase in the fluorescence of the fluorophore thallium corresponding to an influx of thallium ions through the hKv1.5 channels. The measurement is performed 30 secs after injection of the depolarising solution. Application of 10 μM of DPO (Tocris, Kv1.5 channel blocker) allows normalisation of the fluorescence.

T1 sequence (P22460 whole entry, canonical isoform): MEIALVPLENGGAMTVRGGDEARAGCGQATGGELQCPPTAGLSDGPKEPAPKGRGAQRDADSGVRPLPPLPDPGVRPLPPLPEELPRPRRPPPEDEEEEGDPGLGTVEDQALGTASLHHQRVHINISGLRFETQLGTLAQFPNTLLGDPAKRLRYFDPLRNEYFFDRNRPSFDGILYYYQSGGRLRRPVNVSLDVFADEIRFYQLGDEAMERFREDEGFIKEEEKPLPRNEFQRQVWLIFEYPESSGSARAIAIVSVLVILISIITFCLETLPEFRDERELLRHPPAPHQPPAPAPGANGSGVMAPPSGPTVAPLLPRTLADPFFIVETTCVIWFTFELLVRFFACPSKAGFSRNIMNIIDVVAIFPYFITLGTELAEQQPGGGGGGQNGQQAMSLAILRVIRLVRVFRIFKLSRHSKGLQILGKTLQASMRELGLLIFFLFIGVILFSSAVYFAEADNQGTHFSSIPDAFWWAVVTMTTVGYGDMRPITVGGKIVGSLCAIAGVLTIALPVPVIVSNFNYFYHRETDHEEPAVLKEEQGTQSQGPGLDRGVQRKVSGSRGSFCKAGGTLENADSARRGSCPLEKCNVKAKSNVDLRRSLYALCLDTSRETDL

In the case of `COc1ccc(-c2c(-c3cccc(C#N)c3)cnn(C(C)c3ccccc3)c2=O)cc1` (stereo not shown) [Example 8, 3-(5-(4-methoxyphenyl)-6-oxo-1-(1-phenylethyl)-1,6-dihydropyridazin-4-yl)benzonitrile], the inhibition (commonly how much of the control response was suppressed) at 10 µM amounted to 88%.

For `Cc1ccc(S(=O)(=O)Nc2cccc(-c3cnn(C(C)c4ccccc4)c(=O)c3-c3cccc(NS(=O)(=O)c4ccc(C)cc4)c3)c2)cc1` (stereo not shown) [Example 7, N,N′-(3,3′-(6-oxo-1-(1-phenylethyl)-1,6-dihydropyridazine-4,5-diyl)bis(3,1-phenylene))bis(4-methylbenzenesulfonamide)], testing at 10 µM gave an inhibition of 54.9%. The figure for `COc1ccc(-c2c(-c3ccccc3C#N)cnn(C(C)c3ccccc3)c2=O)cc1` (stereo not shown) [Example 9, 2-[5-(4-Methoxy-phenyl)-6-oxo-1-(1-phenyl-ethyl)-1,6-dihydro-pyridazin-4-yl]-benzonitrile] is 60.1%; for `C[C@@H](c1ccccc1)n1ncc(-c2ccc(O)cc2)c(-c2ccc(O)cc2)c1=O` [Example 2, 4,5-Bis-(4-hydroxy-phenyl)-2-((S)-1-phenyl-ethyl)-2H-pyridazin-3-one] it is 100%; for `CC(c1ccccc1)n1ncc(-c2cccc(C#N)c2)c(-c2cccc(C#N)c2)c1=O` (stereo not shown) [Example 5, 3,3′-(6-oxo-1-(1-phenylethyl)-1,6-dihydropyridazine-4,5-diyl) dibenzonitrile] it is 93.6%. In the case of `CC(c1ccccc1)n1ncc(-c2ccccc2C#N)c(-c2ccccc2C#N)c1=O` (stereo not shown) [Example 4, 2,2′-(6-oxo-1-(1-phenylethyl)-1,6-dihydropyridazine-4,5-diyl)dibenzonitrile] it was 54.9%; in that of `CC(c1ccccc1)n1ncc(-c2ccc(O)cc2)c(-c2ccc(O)cc2)c1=O` (stereo not shown) [Example 1, 4,5-Bis-(4-hydroxy-phenyl)-2-(1-phenyl-ethyl)-2H-pyridazin-3-one], 100%; in that of `COc1ccc(-c2cnn(C(C)c3ccccc3)c(=O)c2-c2ccc(OC)cc2)cc1` (stereo not shown) [Example 6, 4,5-Bis-(4-methoxy-phenyl)-2-(1-phenyl-ethyl)-2H-pyridazin-3-one], 94.2%.

In the case of `C[C@H](c1ccccc1)n1ncc(-c2ccc(O)cc2)c(-c2ccc(O)cc2)c1=O` [Example 3, 4,5-Bis-(4-hydroxy-phenyl)-2-((R)-1-phenyl-ethyl)-2H-pyridazin-3-one], the inhibition at 10 µM amounted to 43.3%.

For the compound `CC1=C(C(=O)N2CCC[C@H]2c2ccc(F)cc2)[C@@H](c2ccc(Cl)c(Cl)c2)n2nccc2N1` [BMS394136, reference compound], 10 µM produced 99.6% inhibition.
